Consider 1 compound from US9073820B2, “Pharmaceutical compositions comprising napthamides” (OREGON HEALTH & SCIENCE UNIVERSITY, priority 2011, dated 2015).

Structures are written as SMILES.

In data set [1] the test system is CREB-mediated gene transcription. Description: CREB reporter (pCRE-RLuc) assay in HEK 293T cells, forskolin-stimulated. Type of data set: cell-based. The procedure:
HEK293T cells in a 10-cm plate were transfected with pCRE-RLuc (6.0 μg) using Lipofectamine™ 2000 (Invitrogen, Carlsbad, Calif.) according to manufacturer's protocol. After 3 h, the transfected cells were collected and replated into 96-well plates (1-2×10^4 cells/well). The cells were allowed to attach to the bottom of the wells for overnight, when compounds of different concentrations were added to the cells. Forskolin (final concentration of 10 μM, LC Laboratories, Woburn, Mass.) was added 30 min after the addition of the compounds. The cells were then incubated at 37° C. for 5 h. The media in the wells were removed and the cells were then lysed in 30 μL of 1×Renilla luciferase lysis buffer (Promega, Madison, Wis.). To measure Renilla luciferase activity, five μL of the lysate was combined with 30 μL of benzyl-coelenterazine (Nanolight, Pinetop, Ariz.) solution in PBS (pH 7.4, 10 μg/mL). The sample protein concentration was determined by Dye Reagent Concentrate (Bio-Rad, Hercules, Calif.). The Renilla luciferase activity was normalized to protein content in each well and expressed as relative luciferase unit/μg protein (RLU/μg protein). The IC50 was derived from non-linear regression analysis of the RLU/μg protein-concentration curve in Prism 5.0 (La Jolla, Calif.).

For the next data set, the target named is T1, KIX-KID (Homo sapiens, UniProt Q92793).
T1 construct: made in house
T1 sequence (Q92793 587-666 limits assumed): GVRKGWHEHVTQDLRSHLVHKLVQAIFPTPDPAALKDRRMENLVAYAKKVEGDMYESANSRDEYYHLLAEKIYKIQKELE
Description: KIX-KID inhibition, split Renilla luciferase complementation (RLucC-KIX and KID-RLucN). Format: binding. Particulars: 4° C., 24 h. The procedure:
RLucC-KIX (15 ng) and KID-RLucN-containing cell lysates (0.5 mg) were mixed together in Renilla luciferase lysis buffer (Promega, Madison, Wis.) in the presence of different concentrations of compounds. The final volume of the incubation mixture is 30 μL. The mixture was incubated at 4° C. for 24 h. Then Renilla luciferase activity was measured by combining 5 μL of incubation mixture with 30 μL of coelenterazine solution in PBS (pH 7.4, 10 μg/mL).

Data set [2] concerns MDA-MB-468 cells (human breast cancer cells). Put plainly: MTT cell growth inhibition, 72 h, MDA-MB-468. Particulars: MDA-MB-468, 72 h, read-out: MDA-MB-468 (GI50). Type of data set: cell-based. The procedure: (§1) A549 (human lung cancer cells), MCF-7 (human breast cancer cells), MDA-MB-231 (human breast cancer cells) and MDA-MB-468 cells (human breast cancer cells) were maintained in Dulbecco's modified Eagle medium (DMEM, Invitrogen, Carlsbad, Calif.) supplemented with 10% (v/v) fetal calf serum (Sigma, St. Louis, Mo.), 10 μg/mL penicillin and 10 μg/mL streptomycin (Invitrogen, Carlsbad, Calif.) at 37° C. under 5% CO2. On the day of experiment, different concentrations of the drugs (final concentration 10^−8-10^−4 M) in duplicates were added to the cells and the cells were further incubated for 72 h. Then, the number of live cells was quantified by 3-(4,5-dimethyl-2-thiazolyl)-2,5-diphenyl-2H-tetrazolium bromide (MTT reagent, Sigma, St. Louis, Mo.).
(§2) The amount of reduced MTT formazan generated by live cells was determined by its absorbance at 570 nm after subtracting the background absorbance at 690 nm. The percent of cell growth was expressed as (A570(treated)−A570(initial))/(A570(vehicle treated)−A570(initial))*100, where A570(initial) represents initial cell population when drugs are added. The GI50 were derived from non-linear regression analysis of the dose-response curve using Prism 4.0 (GraphPad). […] Data were presented as mean±SD of at least two measurements in duplicates unless noted.

Data set [3] relates to A549 (human lung cancer cells). Put plainly: MTT cell growth inhibition, 72 h, A549. Type of data set: cell-based. Particulars: A549, 72 h, read-out: A549 (GI50). How it is done: as §1, §2
Data set [4] in a line: Maximum tolerated dose of Compound 4 (body weight). Type of data set: in vivo. How it is done:
The maximum tolerated dose (MTD) of compound 4 was evaluated in nude mice. In this study 4 groups were established, each with five mice per group. The compound was formulated in a suspension of 5% Tween-80/H2O. Compound 4 was administered orally at dose levels of 120, 60, and 30 mg/kg as QD for five days. The body weight was measured daily for a total of 11 days.

Regarding `NCCCOc1cc2ccccc2cc1C(=O)NCCCOc1cc2ccccc2cc1C(=O)Nc1ccc(Cl)cc1O` [Compound 4], the “CREB-mediated gene transcription in HEK 293T cells (in words)” value in data set [1] (HEK 293T cells) was “inhibited”. For the same compound, the IC50 – broadly, the concentration needed to halve the response being measured – in data set [1] (Homo sapiens, HEK-293T, 5 h, read-out: CREB reporter inhibition (IC50)) was found to be 2220 ± 380 nM; at KIX-KID it was 2540 ± 280 nM. Besides, the figures for the 50% growth inhibitory concentration (GI50) in data set [2] and in data set [3] were 210 ± 71 nM and 300 nM, respectively. Besides, the “effect on mouse body weight” value in data set [4] (PO 120, 60, 30 mg/kg QD for five days, body weight 11 days) was “no different from vehicle”. Also, the tolerability entry in data set [4] (doses as high as 120 mg/kg per os, QD for five days) is on record as “well-tolerated”.
